The target of assay [1] is T1, rat TAAR1 (Rattus norvegicus, UniProt Q923Y9).
T1 construct: expressed in transfected cells; membrane preparation
In words: Radioligand binding assay on rat TAAR1. The settings on record: rat TAAR1, HEK-293 membranes, second value of cell mouse/rat. Here is the method:
(§1) For the construction of expression plasmids the coding sequences of human, rat and mouse TAAR 1 were amplified from genomic DNA essentially as described by Lindemann et al.. The Expand High Fidelity PCR System (Roche Diagnostics) was used with 1.5 mM Mg^2+ and purified PCR products were cloned into pCR2.1-TOPO cloning vector (Invitrogen) following the instructions of the manufacturer. PCR products were subcloned into the pIRESneo2 vector (BD Clontech, Palo Alto, Calif.), and expression vectors were sequence verified before introduction in cell lines.
(§2) HEK293 cells (ATCC # CRL-1573) were cultured essentially as described by Lindemann et al. (2005). For the generation of stably transfected cell lines HEK293 cells were transfected with the pIRESneo2 expression plasmids containing the TAAR coding sequences (described above) with Lipofectamine 2000 (Invitrogen) according to the instructions of the manufacturer, and 24 hrs post transfection the culture medium was supplemented with 1 mg/ml G418 (Sigma, Buchs, Switzerland). After a culture period of about 10 d clones were isolated, expanded and tested for responsiveness to trace amines (all compounds purchased from Sigma) with the cAMP Biotrak Enzyme immunoassay (EIA) System (Amersham) following the non-acetylation EIA procedure provided by the manufacturer.
Radioligand Binding Assay on Rat TAAR1
(§3) Membrane Preparation and Radioligand Binding.
HEK-293 cells stably expressing rat TAAR1 were maintained at 37° C. and 5% CO2 in DMEM high glucose medium, containing fetal calf serum (10%, heat inactivated for 30 min at 56° C.), penicillin/streptomycin (1%), and 375 μg/ml geneticin (Gibco). Cells were released from culture flasks using trypsin/EDTA, harvested, washed twice with ice-cold PBS (without Ca^2+ and Mg^2+), pelleted at 1,000 rpm for 5 min at 4° C., frozen and stored at −80° C. Frozen pellets were suspended in 20 ml HEPES-NaOH (20 mM, pH 7.4) containing 10 mM EDTA and homogenized with a Polytron (PT 6000, Kinematica) at 14,000 rpm for 20 s. The homogenate was centrifuged at 48,000×g for 30 min at 4° C. Subsequently, the supernatant was removed and discarded, and the pellet resuspended in 20 ml HEPES-NaOH (20 mM, pH 7.4) containing 0.1 mM EDTA using the Polytron (20 s at 14,000 rpm). This procedure was repeated and the final pellet resuspended in HEPES-NaOH containing 0.1 mM EDTA and homogenized using the Polytron. Typically, aliquots of 2 ml membrane portions were stored at −80° C. With each new membrane batch the dissociation constant (Kd) was determined via a saturation curve. […] Nonspecific binding was defined as the amount of ^3[H]—(S)-4-[(ethyl-phenyl-amino)-methyl]-4,5-dihydro-oxazol-2-ylamine bound in the presence of 10 μM unlabeled ligand. All compounds were tested at a broad range of concentrations (10 pM to 10 μM) in duplicates. The test compounds (20 μl/well) were transferred into a 96 deep well plate (TreffLab), and 180 μl of HEPES-NaOH (20 mM, pH 7.4) containing MgCl2 (10 mM) and CaCl2 (2 mM) (binding buffer), 300 μl of the radioligand ^3[H]—(S)-4-[(ethyl-phenyl-amino)-methyl]-4,5-dihydro-oxazol-2-ylamine at a concentration of 3.3×Kd in nM and 500 μl of the membranes (resuspended at 50 μg protein per ml) added. The 96 deep well plates were incubated for 1 hr at 4° C. Incubations were terminated by rapid filtration through Unifilter-96 plates (Packard Instrument Company) and glass filters GF/C (Perkin Elmer) presoaked for 1 hr in polyethylenimine (0.3%) and washed 3 times with 1 ml of cold binding buffer. After addition of 45 μl of Microscint 40 (PerkinElmer) the Unifilter-96 plate was sealed and after 1 hr the […] counted using a TopCount Microplate Scintillation Counter (Packard Instrument Company).

Assay [2] deals with T2, mouse TAAR1 (Mus musculus, UniProt Q923Y8).
T2 construct: expressed in transfected cells; membrane preparation
T2 sequence (Q923Y8 whole entry): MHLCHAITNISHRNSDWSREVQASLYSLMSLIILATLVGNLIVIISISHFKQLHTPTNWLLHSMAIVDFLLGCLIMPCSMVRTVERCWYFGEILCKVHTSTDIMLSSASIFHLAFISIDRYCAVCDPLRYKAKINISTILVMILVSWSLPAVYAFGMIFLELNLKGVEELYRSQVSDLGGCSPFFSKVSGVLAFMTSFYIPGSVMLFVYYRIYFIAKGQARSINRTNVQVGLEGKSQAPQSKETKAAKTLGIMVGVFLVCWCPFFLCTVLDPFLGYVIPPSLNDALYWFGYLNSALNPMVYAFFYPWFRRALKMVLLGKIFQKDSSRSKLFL
The assay is described as follows: Radioligand binding assay on mouse TAAR1. The settings on record: mouse TAAR1, HEK-293 membranes, first value of cell mouse/rat. Here is the method:
as §1, §2
Radioligand Binding Assay on Mouse TAAR1
as §3
HEK-293 cells stably expressing mouse TAAR1 were maintained at 37° C. and 5% CO2 in DMEM high glucose medium, containing fetal calf serum (10%, heat inactivated for 30 min at 56° C.), penicillin/streptomycin (1%), and 375 μg/ml geneticin (Gibco). Cells were released from culture flasks using trypsin/EDTA, harvested, washed twice with ice-cold PBS (without Ca^2+ and Mg^2+), pelleted at 1,000 rpm for 5 min at 4° C., frozen and stored at −80° C. Frozen pellets were suspended in 20 ml HEPES-NaOH (20 mM, pH 7.4) containing 10 mM EDTA and homogenized with a Polytron (PT 6000, Kinematica) at 14,000 rpm for 20 s. The homogenate was centrifuged at 48,000×g for 30 min at 4° C. Subsequently, the supernatant was removed and discarded, and the pellet resuspended in 20 ml HEPES-NaOH (20 mM, pH 7.4) containing 0.1 mM EDTA using the Polytron (20 s at 14,000 rpm). This procedure was repeated and the final pellet resuspended in HEPES-NaOH containing 0.1 mM EDTA and homogenized using the Polytron. Typically, aliquots of 2 ml membrane portions were stored at −80° C. With each new membrane batch the dissociation constant (Kd) was determined via a saturation curve. The TAAR1 radioligand ^3[H]—(S)-4-[(ethyl-phenyl-amino)-methyl]-4,5-dihydro-oxazol-2-ylamine (described in WO 2008/098857) was used at a concentration equal to the calculated Kd value, that was usually around 0.7 nM, resulting in the binding of approximately 0.5% of the radioligand and a specific binding representing approximately 70% of the total binding. Nonspecific binding was defined as the amount of ^3[H]—(S)-4-[(ethyl-phenyl-amino)-methyl]-4,5-dihydro-oxazol-2-ylamine bound in the presence of 10 μM unlabeled ligand. All compounds were tested at a broad range of concentrations (10 pM to 10 μM) in duplicates. The test compounds (20 μl/well) were transferred into a 96 deep well plate (TreffLab), and 180 μl of HEPES-NaOH (20 mM, pH 7.4) containing MgCl2 (10 mM) and CaCl2 (2 mM) (binding buffer), 300 μl of the radioligand ^3[H]—(S)-4-[(ethyl-phenyl-amino)-methyl]-4,5-dihydro-oxazol-2-ylamine at a concentration of 3.3×Kd in nM and 500 μl of the membranes (resuspended at 60 μg protein per ml) added. The 96 deep well plates were incubated for 1 hr at 4° C. Incubations were terminated by rapid filtration through Unifilter-96 plates (Packard Instrument Company) and glass filters GF/C (Perkin Elmer) presoaked for 1 hr in polyethylenimine (0.3%) and washed 3 times with 1 ml of cold binding buffer. […]

Molecules are shown by their SMILES. Where a name gives a salt, the structure may show the parent alone.

T1 sequence (Q923Y9 whole entry): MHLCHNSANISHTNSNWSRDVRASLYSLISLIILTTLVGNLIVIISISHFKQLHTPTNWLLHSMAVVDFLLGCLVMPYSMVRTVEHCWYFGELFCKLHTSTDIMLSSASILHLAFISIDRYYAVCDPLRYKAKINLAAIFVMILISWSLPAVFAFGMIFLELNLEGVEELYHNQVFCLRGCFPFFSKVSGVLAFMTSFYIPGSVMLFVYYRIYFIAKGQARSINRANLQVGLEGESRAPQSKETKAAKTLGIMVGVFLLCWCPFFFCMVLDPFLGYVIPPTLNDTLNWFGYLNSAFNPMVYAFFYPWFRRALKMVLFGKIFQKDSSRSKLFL

On to `O=C(Nc1ccc([C@@H]2CNCCO2)cc1F)c1cncc(OCC(F)(F)F)n1` [Example 29, (R)—N-(2-Fluoro-4-(morpholin-2-yl)phenyl)-6-(2,2,2-trifluoroethoxy)pyrazine-2-carboxamide], for which the values for the Ki in assay [1] and in assay [2] were 0.0053 µM and 0.0447 µM, respectively.
The like results for `O=C(Nc1ccc([C@H]2CNCCO2)c(F)c1)c1cnc(C2CC2)cn1` [Example 18, 5-Cyclopropyl-pyrazine-2-carboxylic acid ((S)-3-fluoro-4-morpholin-2-yl-phenyl)-amide hydrochloride] were, in that order, 0.0625 µM and 0.0036 µM.
The like results for `O=C(Nc1ccc([C@H]2CNCCO2)c(F)c1)c1cnc(OCC(F)(F)F)cn1` [Example 24, (S)—N-(3-Fluoro-4-(morpholin-2-yl)phenyl)-5-(2,2,2-trifluoroethoxy)pyrazine-2-carboxamide] were, in that order, 0.0202 µM and 0.0042 µM.
The like results for `O=C(Nc1ccc([C@@H]2CNCCO2)c(F)c1)c1cncc(C(F)(F)F)n1` [Example 6, (R)—N-(3-Fluoro-4-(morpholin-2-yl)phenyl)-6-(trifluoromethyl)pyrazine-2-carboxamide hydrochloride] were, in that order, 0.0197 µM and 0.0328 µM.
Take `O=C(Nc1ccc([C@H]2CNCCO2)cc1F)c1cnc(OCC(F)(F)F)cn1` [Example 23, (S)—N-(2-Fluoro-4-(morpholin-2-yl)phenyl)-5-(2,2,2-trifluoroethoxy)pyrazine-2-carboxamide]: the inhibition constant Ki in assay [1] amounted to 0.0881 µM; in assay [2] it was 0.0046 µM.
The like results for `COc1cnc(C(=O)Nc2ccc([C@H]3CNCCO3)c(F)c2)cn1` [Example 10, (S)—N-(3-Fluoro-4-(morpholin-2-yl)phenyl)-5-methoxypyrazine-2-carboxamide hydrochloride] were, in that order, 0.54 µM and 0.0136 µM.
Take `O=C(Nc1ccc([C@H]2CNCCO2)c(F)c1)c1cnc(OCC2CCC2)cn1` [Example 11, (S)-5-(Cyclobutylmethoxy)-N-(3-fluoro-4-(morpholin-2-yl)phenyl)pyrazine-2-carboxamide hydrochloride]: the Ki was 0.0119 µM in assay [1] and 0.0046 µM in assay [2].
The like results for `O=C(Nc1ccc([C@@H]2CNCCO2)c(F)c1)c1cnc(C(F)(F)F)cn1` [Example 1, (R)—N-(3-Fluoro-4-(morpholin-2-yl)phenyl)-5-(trifluoromethyl)pyrazine-2-carboxamide hydrochloride] were, in that order, 0.009 µM and 0.0115 µM.
For the molecule `COc1cnc(C(=O)Nc2ccc([C@@H]3CNCCO3)c(F)c2)cn1` [Example 8, (R)—N-(3-Fluoro-4-(morpholin-2-yl)phenyl)-5-methoxypyrazine-2-carboxamide hydrochloride], the Ki in assay [1] stood at 0.0476 µM; in assay [2], 0.0107 µM.
The like results for `O=C(Nc1ccc([C@@H]2CNCCO2)c(F)c1)c1cnc(OCC(F)(F)F)cn1` [Example 28, (R)—N-(3-Fluoro-4-(morpholin-2-yl)phenyl)-5-(2,2,2-trifluoroethoxy)pyrazine-2-carboxamide] were, in that order, 0.0037 µM and 0.0053 µM.
The like results for `N#Cc1cc(NC(=O)c2cncc(C(F)(F)F)n2)ccc1[C@@H]1CNCCO1` [Example 4, (R)—N-(3-Cyano-4-(morpholin-2-yl)phenyl)-6-(trifluoromethyl)pyrazine-2-carboxamide hydrochloride] were, in that order, 0.0344 µM and 0.0833 µM.
As for `O=C(Nc1ccc([C@H]2CNCCO2)c(F)c1)c1cnc(OCC2CC2)cn1` [Example 12, (S)-5-(Cyclopropylmethoxy)-N-(3-fluoro-4-(morpholin-2-yl)phenyl)pyrazine-2-carboxamide hydrochloride], the Ki in assay [1] was determined as 0.04 µM; in assay [2], 0.0045 µM.
The like results for `O=C(Nc1ccc([C@H]2CNCCO2)c(F)c1)c1cncc(C(F)(F)F)n1` [Example 5, (S)—N-(3-Fluoro-4-(morpholin-2-yl)phenyl)-6-(trifluoromethyl)pyrazine-2-carboxamide hydrochloride] were, in that order, 0.054 µM and 0.038 µM.
